Patent US10568884B2, “Compounds and compositions as protein kinase inhibitors” (Array BioPharma, Inc., priority 2009, dated 2020)

Columns and labels:
[1] = Liver Microsomal Clearance Assay (human); assay type: in vitro ADME; conditions: extraction ratio, human liver microsomes, 1 μM compound
Description: (§1) The in vitro microsomal clearance assay is designed to assess potential risks associated with hepatic metabolic stability of compounds. The test compound (1 μM) was incubated with liver microsomes (0.5 mg/mL) from different species (mouse, rat, monkey, dog and human) and NADPH (1 mM) in 100 mM potassium phosphate buffer at 37° C. At specific reaction time points (0, 5, 10 and 30 minutes), reaction aliquots were removed and reactions were terminated by addition of ice cold acetonitrile containing mass spectrometry internal standard. The samples were centrifuged and the supernatants were analyzed by LC-MS/MS. In vitro metabolic half-life (t1/2, min) and intrinsic clearance (CLint, μL/min/mg) are based on the rate and extent of metabolism of the test compound as determined by the disappearance of the parent compound from the reaction mixture. These values may be scaled to predict hepatic metabolic clearance rate (CLh, mL/min/kg) and extraction ratio (ER, expressed as a ratio of the predicted hepatic metabolic clearance to hepatic blood flow in that species). In general, compounds with high predictedCLint or ER in vitro are considered to be at high risk for exposure-limiting metabolism in vivo.

[2] = Liver Microsomal Clearance Assay (mouse); assay type: in vitro ADME; conditions: extraction ratio, mouse liver microsomes, 1 μM compound
Description: as §1

[3] = tested on: A375 melanoma cell line (B-Raf V600E); assay: A375 Cellular Proliferation Assay (A375 CP); assay type: cell-based; conditions: Homo sapiens, A-375, 48 h; A375-luc cells, 2 days; read-out: A375 CP IC50
Description: A375-luc cells engineered to express luciferase are plated to 384-well white clear bottom plates as 1,500 cells/50 μl/well in DMEM containing 10% FBS. Compounds of the invention dissolved in 100% DMSO at appropriate concentrations are transferred to the cells by a robotic Pin Tool (100 nl). The cells are incubated for 2 days at […], then 25 μl of BrightGlo™ is added to each well and the plates are read by luminescence.

Row | ER Human [1] | ER Mouse [2] | IC50 [3] | SMILES
1 | 0.66 | 0.79 | 2 nM | CCCS(=O)(=O)Nc1cc(Cl)cc(-c2nn(C(C)C)cc2-c2ccnc(NC[C@H](C)NC(=O)OC)n2)c1F [Compound 1, Methyl N-[(2S)-1-[(4-{3-[5-chloro-2-fluoro-3-(propane-1-sulfonamido)phenyl]-1-(propan-2-yl)-1H-pyrazol-4-yl]pyrimidin-2-yl)amino]propan-2-yl]carbamate]
2 | – | – | 18 nM | COC(=O)N[C@@H](C)CNc1nccc(-c2cn(C(C)C)nc2-c2cc(Cl)cc(NS(C)(=O)=O)c2)n1 [Compound 2, methyl N-[(2S)-1-({4-[3-(3-chloro-5-methanesulfonamidophenyl)-1-(propan-2-yl)-1H-pyrazol-4-yl]pyrimidin-2-yl}amino)propan-2-yl]carbamate]
3 | 0.69 | 0.85 | 2 nM | CCCS(=O)(=O)Nc1cccc(-c2nn(C(C)C)cc2-c2ccnc(NC[C@H](C)NC(=O)OC)n2)c1F [Compound 3, methyl N-[(2S)-1-[(4-{3-[2-fluoro-3-(propane-1-sulfonamido)phenyl]-1-(propan-2-yl)-1H-pyrazol-4-yl}pyrimidin-2-yl)amino]propan-2-yl]carbamate]
4 | – | – | 1 nM | CCCS(=O)(=O)Nc1cc(Cl)cc(-c2nn(C(C)C)cc2-c2ccnc(NC[C@H](C)NC(=O)OC)n2)c1 [Compound 5, methyl N-[(2S)-1-[(4-{3-[3-chloro-5-(propane-1-sulfonamido)phenyl]-1-(propan-2-yl)-1H-pyrazol-4-yl]pyrimidin-2-yl)amino]propan-2-yl]carbamate]
5 | 0.69 | – | 46 nM | COC(=O)N[C@@H](C)CNc1nccc(-c2cn(C(C)C)nc2-c2c(F)ccc(NS(C)(=O)=O)c2F)n1 [Compound 6, methyl N-[(2S)-1-({4-[3-(2,6-difluoro-3-methanesulfonamidophenyl)-1-(propan-2-yl)-1H-pyrazol-4-yl]pyrimidin-2-yl]amino)propan-2-yl]carbamate]
6 | – | – | 27 nM | COC(=O)N[C@@H](C)CNc1nccc(-c2cn(C(C)C)nc2-c2cccc(NS(=O)(=O)CCC(F)(F)F)c2F)n1 [Compound 8]
7 | – | – | 3 nM | COC(=O)N[C@@H](C)CNc1nccc(-c2cn(C(C)C)nc2-c2cc(F)cc(NS(C)(=O)=O)c2F)n1 [Compound 10, methyl N-[(2S)-1-({4-[3-(2,5-difluoro-3-methanesulfonamidophenyl)-1-(propan-2-yl)-1H-pyrazol-4-yl]pyrimidin-2-yl]amino)propan-2-yl]carbamate]
8 | – | – | 3 nM | CCn1cc(-c2ccnc(NC[C@H](C)NC(=O)OC)n2)c(-c2cc(Cl)cc(NS(C)(=O)=O)c2F)n1 [Compound 11, methyl N-[(2S)-1-({4-[3-(5-chloro-2-fluoro-3-methanesulfonamidophenyl)-1-ethyl-1H-pyrazol-4-yl]pyrimidin-2-yl}amino)propan-2-yl]carbamate]
9 | – | – | 4 nM | COC(=O)N[C@@H](C)CNc1nccc(-c2cn(C(C)C)nc2-c2cc(C)cc(NS(C)(=O)=O)c2F)n1 [Compound 12, methyl N-[(2S)-1-({4-[3-(2-fluoro-3-methanesulfonamido-5-methylphenyl)-1-(propan-2-yl)-1H-pyrazol-4-yl]pyrimidin-2-yl]amino)propan-2-yl]carbamate]
10 | – | – | 79 nM | COC(=O)N[C@@H](C)CNc1nccc(-c2cn(C(C)C)nc2-c2ccnc(NS(C)(=O)=O)c2Cl)n1 [Compound 14, methyl N-[(2S)-1-({4-[3-(3-chloro-2-methanesulfonamidopyridin-4-yl)-1-(propan-2-yl)-1H-pyrazol-4-yl]pyrimidin-2-yl}amino)propan-2-yl]carbamate]
11 | – | – | 4 nM | COC(=O)N[C@@H](C)CNc1nccc(-c2cn(C(C)C)nc2-c2cc(F)cc(NS(C)(=O)=O)c2Cl)n1 [Compound 15, Methyl N-[(2S)-1-({4-[3-(2-chloro-5-fluoro-3-methanesulfonamidophenyl)-1-(propan-2-yl)-1H-pyrazol-4-yl]pyrimidin-2-yl}amino)propan-2-yl]carbamate]
12 | – | – | 1400 nM | COC(=O)N[C@@H](C)CNc1nccc(-c2cn(C(C)C)nc2-c2ccnc(NS(C)(=O)=O)c2F)n1 [Compound 16, methyl N-[(2S)-1-({4-[3-(3-fluoro-2-methanesulfonamidopyridin-4-yl)-1-(propan-2-yl)-1H-pyrazol-4-yl]pyrimidin-2-yl}amino)propan-2-yl]carbamate]
13 | – | – | 2 nM | CC(C)n1cc(-c2ccnc(NCCC#N)n2)c(-c2cc(Cl)cc(NS(C)(=O)=O)c2F)n1 [Compound 17, N-[5-chloro-3-(4-{2-[(2-cyanoethyl)amino]pyrimidin-4-yl}-1-(propan-2-yl)-1H-pyrazol-3-yl)-2-fluorophenyl]methanesulfonamide]
14 | – | – | 12 nM | CCS(=O)(=O)Nc1c(F)c(F)cc(-c2nn(C(C)C)cc2-c2ccnc(NC[C@H](C)NC(=O)OC)n2)c1Cl [Compound 18, methyl N-[(2S)-1-({4-[3-(2-chloro-3-ethanesulfonamido-4,5-difluorophenyl)-1-(propan-2-yl)-1H-pyrazol-4-yl]pyrimidin-2-yl}amino)propan-2-yl]carbamate]
15 | – | – | 93 nM | COC(=O)N[C@@H](C)CNc1nccc(-c2cn(C(C)C)nc2-c2ccc(F)c(NS(C)(=O)=O)c2F)n1 [Compound 19, methyl N-[(2S)-1-({4-[3-(2,4-difluoro-3-methanesulfonamidophenyl)-1-(propan-2-yl)-1H-pyrazol-4-yl]pyrimidin-2-yl}amino)propan-2-yl]carbamate]
16 | – | – | 7 nM | COC(=O)N[C@H](C)CNc1nccc(-c2cn(C(C)C)nc2-c2cc(Cl)cc(NS(C)(=O)=O)c2F)n1 [Compound 20, methyl N-[(2R)-1-({4-[3-(5-chloro-2-fluoro-3-methanesulfonamidophenyl)-1-(propan-2-yl)-1H-pyrazol-4-yl]pyrimidin-2-yl}amino)propan-2-yl]carbamate]
17 | – | – | 45 nM | COC(=O)N[C@@H](C)CNc1nccc(-c2cn(C(C)C)nc2-c2cc(F)c(F)c(NS(C)(=O)=O)c2F)n1 [Compound 21, methyl N-[(2S)-1-({4-[1-(propan-2-yl)-3-(2,4,5-trifluoro-3-methanesulfonamidophenyl)-1H-pyrazol-4-yl]pyrimidin-2-yl}amino)propan-2-yl]carbamate]
18 | – | – | 6 nM | COC(=O)N[C@@H](C)CNc1nccc(-c2cn(C(C)C)nc2-c2cc(Cl)cc(NS(C)(=O)=O)c2Cl)n1 [Compound 22, methyl N-[(2S)-1-({4-[3-(2,5-dichloro-3-methanesulfonamidophenyl)-1-(propan-2-yl)-1H-pyrazol-4-yl]pyrimidin-2-yl}amino)propan-2-yl]carbamate]
19 | – | – | 1150 nM | COC(=O)N[C@@H](C)CNc1nccc(-c2cn(C(C)C)nc2-c2cccc(NS(C)(=O)=O)c2)n1 [Compound 23, methyl N-[(2S)-1-({4-[3-(3-methanesulfonamidophenyl)-1-(propan-2-yl)-1H-pyrazol-4-yl]pyrimidin-2-yl}amino)propan-2-yl]carbamate]
20 | – | – | 2 nM | COC(=O)N[C@@H](C)CNc1nccc(-c2cn(C(C)C)nc2-c2cc(Cl)cc(NS(=O)(=O)C3CC3)c2F)n1 [Compound 25, methyl N-[(2S)-1-({4-[3-(5-chloro-3-cyclopropanesulfonamido-2-fluorophenyl)-1-(propan-2-yl)-1H-pyrazol-4-yl]pyrimidin-2-yl}amino)propan-2-yl]carbamate]
21 | – | – | 14 nM | CCS(=O)(=O)Nc1c(F)ccc(-c2nn(C(C)C)cc2-c2ccnc(NC[C@H](C)NC(=O)OC)n2)c1F [Compound 26, methyl N-[(2S)-1-({4-[3-(3-ethanesulfonamido-2,4-difluorophenyl)-1-(propan-2-yl)-1H-pyrazol-4-yl]pyrimidin-2-yl}amino)propan-2-yl]carbamate]
22 | – | – | 550 nM | CC(C)n1cc(-c2ccnc(NCCN(C)C)n2)c(-c2cc(Cl)cc(NS(C)(=O)=O)c2F)n1 [Compound 28, N-{5-chloro-3-[4-(2-{[2-(dimethylamino)ethyl]amino}pyrimidin-4-yl)-1-(propan-2-yl)-1H-pyrazol-3-yl]-2-fluorophenyl}methanesulfonamide]
23 | – | – | 69 nM | CC(C)n1cc(-c2ccnc(N)n2)c(-c2cc(Cl)cc(NS(C)(=O)=O)c2F)n1 [Compound 30, N-{3-[4-(2-aminopyrimidin-4-yl)-1-(propan-2-yl)-1H-pyrazol-3-yl]-5-chloro-2-fluorophenyl}methanesulfonamide]
24 | – | – | 180 nM | COC(=O)N[C@@H](C)CNc1nccc(-c2c[nH]nc2-c2cc(Cl)cc(NS(C)(=O)=O)c2F)n1 [Compound 31]
25 | – | – | 7 nM | COC(=O)N[C@@H](C)CNc1nccc(-c2cn(C3CCCCO3)nc2-c2cc(Cl)cc(NS(C)(=O)=O)c2F)n1 (stereo partly drawn) [Compound 33, Methyl N-[(2S)-1-({4-(3-(5-chloro-2-fluoro-3-methanesulfonamidophenyl)-1-(oxan-2-yl)-1H-pyrazol-4-yl]pyrimidin-2-yl}amino)propan-2-yl]carbamate]
26 | – | – | 13 nM | CCCS(=O)(=O)Nc1c(F)ccc(-c2nn(C(C)C)cc2-c2ccnc(NC[C@H](C)NC(=O)OC)n2)c1F [Compound 34]
